Where “and” joins values, the source holds several entries; their conditions need not be identical. Identical values can stand only once. ± gives the expanded uncertainty stated by the source.
Settings: Liquid; for speed of sound: Frequency=3 MHz, Single path-length method; for mass density: Vibrating tube method

Structure (SMILES): COC(F)(C(F)(F)C(F)(F)F)C(F)(C(F)(F)F)C(F)(F)F (stereo not drawn)
- speed of sound (293.15 K, 100 kPa): 644.5 ± 1.1 m/s
- mass density (293.15 K, 100 kPa): 1668.2 ± 0.8 kg/m3 and 1668.43 ± 0.98 kg/m3
- mass density (293.15 K, 1000 kPa): 1670.8 ± 0.8 kg/m3
- mass density (293.15 K, 5000 kPa): 1681.9 ± 0.9 kg/m3
- mass density (293.15 K, 10000 kPa): 1694.8 ± 1 kg/m3
- mass density (293.15 K, 15000 kPa): 1706.6 ± 1.1 kg/m3
- mass density (293.15 K, 20000 kPa): 1717.6 ± 1.2 kg/m3
- mass density (293.15 K, 25000 kPa): 1727.9 ± 1.3 kg/m3
- mass density (293.15 K, 30000 kPa): 1737.7 ± 1.4 kg/m3
- mass density (293.15 K, 35000 kPa): 1746.9 ± 1.5 kg/m3
- mass density (293.15 K, 40000 kPa): 1755.6 ± 1.7 kg/m3
- mass density (293.15 K, 45000 kPa): 1764 ± 1.8 kg/m3
- mass density (293.15 K, 50000 kPa): 1772 ± 2 kg/m3
- mass density (293.15 K, 55000 kPa): 1779.7 ± 2.2 kg/m3
- mass density (293.15 K, 60000 kPa): 1787 ± 2.3 kg/m3
- mass density (293.15 K, 65000 kPa): 1794.1 ± 2.5 kg/m3
- mass density (293.15 K, 70000 kPa): 1800.9 ± 2.7 kg/m3
- mass density (293.15 K, 80000 kPa): 1814 ± 3 kg/m3
- mass density (293.15 K, 90000 kPa): 1826.3 ± 3.4 kg/m3
- mass density (293.15 K, 100000 kPa): 1837.8 ± 3.8 kg/m3
- mass density (293.15 K, 110000 kPa): 1848.8 ± 4.1 kg/m3
- mass density (293.15 K, 120000 kPa): 1859.3 ± 4.5 kg/m3
- mass density (293.15 K, 130000 kPa): 1869.3 ± 4.9 kg/m3
- mass density (293.15 K, 140000 kPa): 1878.8 ± 5.3 kg/m3
- speed of sound (298.15 K, 100 kPa): 629.44 ± 1.1 m/s
- mass density (298.15 K, 100 kPa): 1656.7 ± 0.8 kg/m3 and 1656.79 ± 0.98 kg/m3
- mass density (298.15 K, 1000 kPa): 1659.4 ± 0.8 kg/m3
- mass density (298.15 K, 5000 kPa): 1671 ± 0.9 kg/m3
- mass density (298.15 K, 10000 kPa): 1684.4 ± 1 kg/m3
- mass density (298.15 K, 15000 kPa): 1696.6 ± 1 kg/m3
- mass density (298.15 K, 20000 kPa): 1708 ± 1.2 kg/m3
- mass density (298.15 K, 25000 kPa): 1718.6 ± 1.3 kg/m3
- mass density (298.15 K, 30000 kPa): 1728.6 ± 1.4 kg/m3
- mass density (298.15 K, 35000 kPa): 1738.1 ± 1.5 kg/m3
- mass density (298.15 K, 40000 kPa): 1747.1 ± 1.6 kg/m3
- mass density (298.15 K, 45000 kPa): 1755.6 ± 1.8 kg/m3
- mass density (298.15 K, 50000 kPa): 1763.8 ± 2 kg/m3
- mass density (298.15 K, 55000 kPa): 1771.7 ± 2.1 kg/m3
- mass density (298.15 K, 60000 kPa): 1779.3 ± 2.3 kg/m3
- mass density (298.15 K, 65000 kPa): 1786.5 ± 2.5 kg/m3
- mass density (298.15 K, 70000 kPa): 1793.4 ± 2.6 kg/m3
- mass density (298.15 K, 80000 kPa): 1806.7 ± 3 kg/m3
- mass density (298.15 K, 90000 kPa): 1819.1 ± 3.4 kg/m3
- mass density (298.15 K, 100000 kPa): 1831 ± 3.7 kg/m3
- mass density (298.15 K, 110000 kPa): 1842 ± 4.1 kg/m3
- mass density (298.15 K, 120000 kPa): 1852.7 ± 4.5 kg/m3
- mass density (298.15 K, 130000 kPa): 1862.8 ± 4.9 kg/m3
- mass density (298.15 K, 140000 kPa): 1872.5 ± 5.3 kg/m3
- speed of sound (303.15 K, 100 kPa): 614.76 ± 1.1 m/s
- mass density (303.15 K, 100 kPa): 1645.11 ± 0.98 kg/m3
- speed of sound (313.15 K, 100 kPa): 585.65 ± 1.1 m/s
- mass density (313.15 K, 100 kPa): 1621.3 ± 0.8 kg/m3 and 1621.41 ± 0.97 kg/m3
- mass density (313.15 K, 1000 kPa): 1624.5 ± 0.8 kg/m3
- mass density (313.15 K, 5000 kPa): 1637.7 ± 0.9 kg/m3
- mass density (313.15 K, 10000 kPa): 1652.7 ± 0.9 kg/m3
- mass density (313.15 K, 15000 kPa): 1666.3 ± 1 kg/m3
- mass density (313.15 K, 20000 kPa): 1678.8 ± 1.1 kg/m3
- mass density (313.15 K, 25000 kPa): 1690.4 ± 1.2 kg/m3
- mass density (313.15 K, 30000 kPa): 1701.4 ± 1.4 kg/m3
- mass density (313.15 K, 35000 kPa): 1711.6 ± 1.5 kg/m3
- mass density (313.15 K, 40000 kPa): 1721.2 ± 1.6 kg/m3
- mass density (313.15 K, 45000 kPa): 1730.5 ± 1.7 kg/m3
- mass density (313.15 K, 50000 kPa): 1739.2 ± 1.9 kg/m3
- mass density (313.15 K, 55000 kPa): 1747.6 ± 2.1 kg/m3
- mass density (313.15 K, 60000 kPa): 1755.5 ± 2.2 kg/m3
- mass density (313.15 K, 65000 kPa): 1763.3 ± 2.4 kg/m3
- mass density (313.15 K, 70000 kPa): 1770.7 ± 2.6 kg/m3
- mass density (313.15 K, 80000 kPa): 1784.8 ± 2.9 kg/m3
- mass density (313.15 K, 90000 kPa): 1797.9 ± 3.3 kg/m3
- mass density (313.15 K, 100000 kPa): 1810.2 ± 3.6 kg/m3
- mass density (313.15 K, 110000 kPa): 1822 ± 4 kg/m3
- mass density (313.15 K, 120000 kPa): 1832.9 ± 4.4 kg/m3
- mass density (313.15 K, 130000 kPa): 1843.5 ± 4.8 kg/m3
- mass density (313.15 K, 140000 kPa): 1853.5 ± 5.2 kg/m3
- speed of sound (323.15 K, 100 kPa): 557.04 ± 1.1 m/s
- mass density (323.15 K, 100 kPa): 1597.04 ± 0.97 kg/m3
- speed of sound (333.15 K, 100 kPa): 529.01 ± 1.1 m/s
- mass density (333.15 K, 100 kPa): 1572.7 ± 0.8 kg/m3 and 1572.8 ± 0.96 kg/m3
- mass density (333.15 K, 1000 kPa): 1576.5 ± 0.8 kg/m3
- mass density (333.15 K, 5000 kPa): 1592.3 ± 0.9 kg/m3
- mass density (333.15 K, 10000 kPa): 1609.9 ± 0.9 kg/m3
- mass density (333.15 K, 15000 kPa): 1625.7 ± 1 kg/m3
- mass density (333.15 K, 20000 kPa): 1639.8 ± 1.1 kg/m3
